Earlier results as cited in patent US7241583B2, “TRL1 as an antifungal target” (Oxford Glycosciences (UK) Ltd, priority 2002, dated 2007).

Details: mice; DOX 2 mg/ml in 5% sucrose solution as drinking water, approx. 5 ml per day

C[C@H]1c2cccc(O)c2C(O)=C2C(=O)[C@]3(O)C(O)=C(C(N)=O)C(=O)[C@@H](N(C)C)[C@@H]3[C@@H](O)[C@@H]21 [DOX, doxycycline]
concentration of DOX in kidney: > 10 mg/g of kidney
concentration of DOX in liver: > 8 mg/g of liver
concentration of DOX in serum: more than 2 mg/ml of serum
